Values after ≈ are worked out from the molar mass of the structure shown.
How the values were obtained:
[1] = test system: M. catarrhalis B0324; assay: microtiter broth serial dilution MIC, M. catarrhalis B0324; format: cell-based, Moraxella catarrhalis; conditions: unit assumed
From the text: (§1) In particular, the compounds of the invention may be active against strains of Staphylococcus aureus, Streptococcus pneumoniae, Moraxella catarrhalis, Streptococcus pyogenes, or Haemophilus influenzae. […] (Table 1.)

[2] = test system: S. pyogenes B0545 M; assay: microtiter broth serial dilution MIC, S. pyogenes B0545 M; format: cell-based, Streptococcus pyogenes; conditions: S. pyogenes B0545 M (efflux resistant strain); unit assumed
From the text: as §1

[3] = test system: S. aureus B0329; assay: microtiter broth serial dilution MIC, S. aureus B0329; format: cell-based, Staphylococcus aureus; conditions: unit assumed
From the text: as §1

[4] = test system: S. pneumoniae B0541; assay: microtiter broth serial dilution MIC, S. pneumoniae B0541; format: cell-based, Streptococcus pneumoniae; conditions: unit assumed
From the text: as §1

[5] = test system: H. influenzae B0529; assay: microtiter broth serial dilution MIC, H. influenzae B0529; format: cell-based, Haemophilus influenzae; conditions: unit assumed
From the text: as §1

[6] = test system: S. pyogenes B0543 iMLS; assay: microtiter broth serial dilution MIC, S. pyogenes B0543 iMLS; format: cell-based, Streptococcus pyogenes; conditions: S. pyogenes B0543 iMLS (inducible resistant strain); unit assumed
From the text: as §1

[7] = test system: S. pneumoniae B0326 M; assay: microtiter broth serial dilution MIC, S. pneumoniae B0326 M; format: cell-based, Streptococcus pneumoniae; conditions: unit assumed
From the text: as §1

[8] = test system: S. pyogenes B0542; assay: microtiter broth serial dilution MIC, S. pyogenes B0542; format: cell-based, Streptococcus pyogenes; conditions: unit assumed
From the text: as §1

[9] = test system: E. coli B0001; assay: microtiter broth serial dilution MIC, E. coli B0001; format: cell-based; conditions: unit assumed
From the text: as §1

Compound	MIC [1]	MIC [2]	MIC [3]	MIC [4]	MIC [5]	MIC [6]	MIC [7]	MIC [8]	MIC [9]
8a-Aza-8a-homoerythromycin	2 µg/mL	32 µg/mL	2 µg/mL	0.125 µg/mL	1 µg/mL	8 µg/mL	64 µg/mL	0.25 µg/mL	16 µg/mL
CC[C@H]1OC(=O)[C@H](C)[C@@H](O[C@H]2C[C@@](C)(OC)[C@@H](O)[C@H](C)O2)[C@H](C)[C@@H](O[C@@H]2O[C@H](C)C[C@H](N(C)C)[C@H]2O)[C@](C)(O)C[C@@H](C)CN[C@H](C)[C@@H](O)[C@]1(C)O [9-Deoxo-9a-aza-9a-homoerythromycin]	1 µg/mL (≈ 1.36 µM)	16 µg/mL (≈ 21.8 µM)	4 µg/mL (≈ 5.44 µM)	0.25 µg/mL (≈ 0.34 µM)	0.5 µg/mL (≈ 0.68 µM)	32 µg/mL (≈ 43.5 µM)	16 µg/mL (≈ 21.8 µM)	0.125 µg/mL (≈ 0.17 µM)	4 µg/mL (≈ 5.44 µM)
CC[C@H]1OC(=O)[C@H](C)[C@@H](O[C@H]2C[C@@](C)(OC)[C@@H](O)[C@H](C)O2)[C@H](C)[C@@H](O[C@@H]2O[C@H](C)C[C@H](N(C)C)[C@H]2O)[C@](C)(O)C[C@@H](C)CN[C@H](C)[C@@H](OC)[C@]1(C)O [Ex. 3, 11-O-METHYL-9-DEOZO-9A-AZA-9A-HOMOERYTHROMYCIN]	0.125 µg/mL (≈ 0.167 µM)	4 µg/mL (≈ 5.34 µM)	1 µg/mL (≈ 1.34 µM)	0.125 µg/mL (≈ 0.167 µM)	0.5 µg/mL (≈ 0.668 µM)	16 µg/mL (≈ 21.4 µM)	8 µg/mL (≈ 10.7 µM)	0.125 µg/mL (≈ 0.167 µM)	2 µg/mL (≈ 2.67 µM)
CC[C@H]1OC(=O)[C@H](C)[C@@H](O[C@H]2C[C@@](C)(OC)[C@@H](O)[C@H](C)O2)[C@H](C)[C@@H](O[C@@H]2O[C@H](C)C[C@H](N(C)C)[C@H]2O)[C@](C)(O)C[C@@H](C)NC(=O)[C@H](C)[C@@H](OC)[C@]1(C)O [Ex. 5, 11-O-METHYL-8A-AZA-8A-HOMOERYTHROMYCIN]	0.125 µg/mL (≈ 0.164 µM)	16 µg/mL (≈ 21 µM)	0.5 µg/mL (≈ 0.655 µM)	0.125 µg/mL (≈ 0.164 µM)	1 µg/mL (≈ 1.31 µM)	4 µg/mL (≈ 5.24 µM)	32 µg/mL (≈ 41.9 µM)	0.125 µg/mL (≈ 0.164 µM)	16 µg/mL (≈ 21 µM)

Source: patent US7435805B2, “O-alkyl macrolide and azalide derivatives and regioselective process for their preparation” (GlaxpSmithkline Istrazivacki, priority 2003, dated 2008)
